Results published in ChEMBL document CHEMBL1201862, “PubChem BioAssay data set” (2004).
The source made the active and inactive calls.

Experiments:
[1] = NIH/3T3 fibroblast cytotoxicity, dose response, cytotoxicity control for T. cruzi growth inhibitor project, cell-based, cherry-pick samples, set 2 (AID 651817); assay type: functional; details: NIH3T3
Vero = assay: Vero cell toxicity, dose response, cytotoxicity control, plate reader, cherry-pick samples (AID 687020); assay type: functional, cell-based; details: Chlorocebus sabaeus
[2] = biological target: Botulinum neurotoxin type F (Clostridium botulinum, UniProt P30996); assay: High-throughput multiplex microsphere dose response for inhibitors of toxin protease, specifically Botulinum neurotoxin light chain F protease, compounds from Cherry Pick 02.; assay type: functional; details: read-out: EC50_MICROM
[3] = biological target: Matrix metalloproteinase-14 (Homo sapiens, UniProt P50281); assay: Dose Response confirmation of uHTS hits for a small molecule inhibitors of MT1-MMP activation in a fluorescence assay set 1.; assay type: functional
Bcl-2-like protein 10 = biological target: T1, Bcl-2-like protein 10 (Homo sapiens, UniProt Q9HD36); assay: displacers of TR3 peptide from Bcl-B, primary screen, selectivity assay for Bfl-1 inhibitor project, biochemical, fluorescence polarization, FITC-TR3 peptide (AID 748);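 further: fluorescence polarization from a fluorescein-labelled TR3 peptide binding purified Bcl-B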
T1 sequence (Q9HD36 whole entry): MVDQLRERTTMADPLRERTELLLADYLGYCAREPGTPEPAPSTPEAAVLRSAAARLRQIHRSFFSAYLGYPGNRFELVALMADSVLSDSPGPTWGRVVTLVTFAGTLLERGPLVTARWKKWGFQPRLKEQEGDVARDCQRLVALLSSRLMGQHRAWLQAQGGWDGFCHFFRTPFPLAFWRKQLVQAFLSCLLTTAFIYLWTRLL

Large T antigen = Large T antigen (Simian virus 40, UniProt P03070); assay type: functional, Betapolyomavirus macacae;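 further: Confirmatory-stage PubChem screen for compounds that inhibit SV40 T antigen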
[4] = biological target: 5-hydroxytryptamine receptor 2A (Mus musculus, UniProt P35363); assay type: functional, cell-based;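 further: CHO-K1 cells with tagged receptor and beta-arrestin; agonist potency measured as compound-induced activation of the receptor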
[5] = biological target: T2, RNA-binding protein pos-1 (Caenorhabditis elegans, UniProt G5EF15); assay: inhibitors of POS-1/mex-3 RNA binding, dose response, biochemical, fluorescence polarization (AID 1964);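 further: purified POS-1 fused to maltose binding protein made in E. coli; potency of compounds blocking POS-1 binding to fluorescent RNA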
T2 sequence (G5EF15 whole entry): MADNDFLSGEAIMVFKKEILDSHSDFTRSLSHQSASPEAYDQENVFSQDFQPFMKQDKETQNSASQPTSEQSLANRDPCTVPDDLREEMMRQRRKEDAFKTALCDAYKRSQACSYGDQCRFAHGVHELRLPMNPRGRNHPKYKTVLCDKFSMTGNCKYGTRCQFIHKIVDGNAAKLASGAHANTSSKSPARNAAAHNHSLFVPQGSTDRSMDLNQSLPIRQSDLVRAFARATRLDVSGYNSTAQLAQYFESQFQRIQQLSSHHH

Mu-type opioid receptor = Mu-type opioid receptor (Homo sapiens, UniProt P35372); assay type: functional, cell-based;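 further: U2OS cells with beta-arrestin recruitment to OPRM1 by beta-gal complementation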
[6] = biological target: T3, Zinc finger protein mex-5 (Caenorhabditis elegans, UniProt Q9XUB2); assay: MEX-5/TCR-2 RNA interaction inhibitors, dose response, biochemical, C. elegans, fluorescence polarization (AID 1960)
T3 sequence (Q9XUB2 whole entry): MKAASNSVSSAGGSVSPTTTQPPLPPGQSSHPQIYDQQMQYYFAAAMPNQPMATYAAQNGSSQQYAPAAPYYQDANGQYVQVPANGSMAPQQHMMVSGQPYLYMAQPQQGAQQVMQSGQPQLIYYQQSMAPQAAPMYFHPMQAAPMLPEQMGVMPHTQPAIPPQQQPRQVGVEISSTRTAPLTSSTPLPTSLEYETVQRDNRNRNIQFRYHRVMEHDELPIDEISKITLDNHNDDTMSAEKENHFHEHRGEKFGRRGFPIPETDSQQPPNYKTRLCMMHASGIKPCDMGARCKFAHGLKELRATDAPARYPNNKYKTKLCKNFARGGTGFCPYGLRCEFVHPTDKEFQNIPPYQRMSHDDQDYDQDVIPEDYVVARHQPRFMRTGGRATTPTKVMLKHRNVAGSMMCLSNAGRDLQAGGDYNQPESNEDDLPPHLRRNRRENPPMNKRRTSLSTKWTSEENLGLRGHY

[7] = CEM21 lymphoblast cell cytotoxicity, dose response, cytotoxicity control for viral fusion inhibitor project, CellTiter-Glo luminescence, cherry-picked (AID 652042); assay type: functional, cell-based;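 further: potency for signal decrease meaning cytotoxicity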
[8] = off-target signal loss in HeLa-CEM21 co-culture – HeLa F-luc CTL cells, cherry-picked, counter-screen for HIV-1 Env fusion inhibitor project, dose response (AID 652040); assay type: functional, cell-based;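 further: potency for signal decrease marking cytotoxic or nonspecific inhibition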
HepG2 = assay: HepG2 cell cytotoxicity, dose response, cytotoxicity control, cherry-picks, set 2 (AID 687002); assay type: functional, cell-based; details: Homo sapiens
HeLa [9] = assay: HeLa cell cytotoxicity, dose response, cytotoxicity control, ATP luminescence, cherry-pick samples (AID 687004); assay type: functional, cell-based; details: Homo sapiens
[10] = biological target: T4, Rac GTPase-activating protein 1 (Homo sapiens, UniProt Q9H0H5); assay: MgcRacGAP GTPase-activating activity inhibitors, confirmation, biochemical, ADP Hunter fluorescence, primary and confirmatory (AID 624330); assay type: functional
T4 sequence (Q9H0H5 whole entry): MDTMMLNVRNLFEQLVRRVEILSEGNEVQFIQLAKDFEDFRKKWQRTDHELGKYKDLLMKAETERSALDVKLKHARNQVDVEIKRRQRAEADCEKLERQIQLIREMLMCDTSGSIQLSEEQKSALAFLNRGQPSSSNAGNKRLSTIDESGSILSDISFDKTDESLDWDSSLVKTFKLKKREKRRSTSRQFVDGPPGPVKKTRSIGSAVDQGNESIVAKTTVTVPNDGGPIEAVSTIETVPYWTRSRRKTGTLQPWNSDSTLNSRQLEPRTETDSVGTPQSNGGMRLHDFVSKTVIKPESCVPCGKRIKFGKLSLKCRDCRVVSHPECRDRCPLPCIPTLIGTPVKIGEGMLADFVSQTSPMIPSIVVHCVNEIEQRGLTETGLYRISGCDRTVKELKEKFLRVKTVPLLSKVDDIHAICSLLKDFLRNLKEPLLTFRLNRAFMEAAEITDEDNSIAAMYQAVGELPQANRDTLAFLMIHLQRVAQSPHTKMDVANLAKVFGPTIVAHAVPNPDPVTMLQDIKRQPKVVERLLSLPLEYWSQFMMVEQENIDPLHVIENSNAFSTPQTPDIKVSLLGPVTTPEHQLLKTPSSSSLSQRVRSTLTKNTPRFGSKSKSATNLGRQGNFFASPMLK

[11] = biological target: T5, Small ubiquitin-related modifier 1 (Homo sapiens, UniProt P63165); assay: inhibitors of SUMO1 partner interactions, dose response, biochemical, FRET (AID 624383); assay type: functional; details: read-out: IC50_Mean
[12] = biological target: T6, Dual specificity protein phosphatase 6 (Rattus norvegicus, UniProt Q64346); assay type: functional
T6 sequence (Q64346 whole entry): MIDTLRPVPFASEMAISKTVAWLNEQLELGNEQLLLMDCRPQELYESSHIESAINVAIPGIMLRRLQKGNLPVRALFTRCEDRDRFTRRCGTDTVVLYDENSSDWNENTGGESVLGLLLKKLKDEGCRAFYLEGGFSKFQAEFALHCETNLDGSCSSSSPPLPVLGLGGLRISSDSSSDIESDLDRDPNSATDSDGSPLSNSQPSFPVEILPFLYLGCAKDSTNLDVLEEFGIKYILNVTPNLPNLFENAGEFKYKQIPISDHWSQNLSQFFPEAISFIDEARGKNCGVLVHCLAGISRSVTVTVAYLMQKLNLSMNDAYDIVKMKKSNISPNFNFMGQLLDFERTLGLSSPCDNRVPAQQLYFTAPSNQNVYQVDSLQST

[13] = biological target: T7, Small ubiquitin-related modifier 2 (Homo sapiens, UniProt P61956); assay: inhibitors of SUMO2 protein-protein interaction, dose response, selectivity assay for SUMO1 interaction inhibitor project, biochemical, FRET, human SUMO2, uHTS hits (AID 624384); assay type: functional; details: read-out: IC50_Mean
[14] = biological target: Heat shock 70 kDa protein 1A (Homo sapiens, UniProt P0DMV8); assay: Hsp70 inhibitors, SAR follow-up, biochemical, fluorescence polarization (AID 1072)
[15] = biological target: T6, Dual specificity protein phosphatase 6
NS3 = NS3 (Hepatitis C virus, UniProt A3EZJ3); assay: PubChem AID 2173; set-up: species or system Hepacivirus hominis
[16] = biological target: Glyceraldehyde-3-phosphate dehydrogenase (Homo sapiens, UniProt P04406)
HeLa [17] = assay: HeLa cell cytotoxicity, dose response, cytotoxicity control, 24 h, cherry-picked samples (AID 504726); assay type: functional, cell-based; details: Homo sapiens;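 further: potency for cytotoxicity as loss of luminescence signal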
[18] = biological target: T8, Tyrosine-protein phosphatase non-receptor type 7 (Homo sapiens, UniProt P35236); assay type: functional
T8 sequence (P35236 whole entry): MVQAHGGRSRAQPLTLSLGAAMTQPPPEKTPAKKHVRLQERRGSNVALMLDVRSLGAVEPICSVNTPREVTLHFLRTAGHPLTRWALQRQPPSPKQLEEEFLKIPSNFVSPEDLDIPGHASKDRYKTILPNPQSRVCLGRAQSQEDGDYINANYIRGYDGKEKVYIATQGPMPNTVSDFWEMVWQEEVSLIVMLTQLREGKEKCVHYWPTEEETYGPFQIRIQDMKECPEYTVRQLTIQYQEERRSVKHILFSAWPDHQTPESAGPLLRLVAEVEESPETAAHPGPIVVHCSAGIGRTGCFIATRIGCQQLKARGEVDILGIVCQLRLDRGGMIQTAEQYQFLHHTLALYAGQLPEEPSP

[19] = biological target: T5, Small ubiquitin-related modifier 1; assay: inhibitors of SUMO1 peptide binding, dose response, biochemical, fluorescence polarization, uHTS hits (AID 624382); assay type: functional; details: read-out: IC50_Mean
ORF 73 = biological target: T9, ORF 73 (Human herpesvirus 8, UniProt O40947); assay: inhibitors of C-LANA binding to LBS DNA, dose response, biochemical, fluorescence polarization, cherry-picked samples (AID 504725); set-up: species or system Human gammaherpesvirus 8;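 further: fluorescence polarization of a labeled DNA duplex reporting LANA DNA binding; potency is for inhibitors that block LANA binding to the DNA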
T9 sequence (O40947 whole entry): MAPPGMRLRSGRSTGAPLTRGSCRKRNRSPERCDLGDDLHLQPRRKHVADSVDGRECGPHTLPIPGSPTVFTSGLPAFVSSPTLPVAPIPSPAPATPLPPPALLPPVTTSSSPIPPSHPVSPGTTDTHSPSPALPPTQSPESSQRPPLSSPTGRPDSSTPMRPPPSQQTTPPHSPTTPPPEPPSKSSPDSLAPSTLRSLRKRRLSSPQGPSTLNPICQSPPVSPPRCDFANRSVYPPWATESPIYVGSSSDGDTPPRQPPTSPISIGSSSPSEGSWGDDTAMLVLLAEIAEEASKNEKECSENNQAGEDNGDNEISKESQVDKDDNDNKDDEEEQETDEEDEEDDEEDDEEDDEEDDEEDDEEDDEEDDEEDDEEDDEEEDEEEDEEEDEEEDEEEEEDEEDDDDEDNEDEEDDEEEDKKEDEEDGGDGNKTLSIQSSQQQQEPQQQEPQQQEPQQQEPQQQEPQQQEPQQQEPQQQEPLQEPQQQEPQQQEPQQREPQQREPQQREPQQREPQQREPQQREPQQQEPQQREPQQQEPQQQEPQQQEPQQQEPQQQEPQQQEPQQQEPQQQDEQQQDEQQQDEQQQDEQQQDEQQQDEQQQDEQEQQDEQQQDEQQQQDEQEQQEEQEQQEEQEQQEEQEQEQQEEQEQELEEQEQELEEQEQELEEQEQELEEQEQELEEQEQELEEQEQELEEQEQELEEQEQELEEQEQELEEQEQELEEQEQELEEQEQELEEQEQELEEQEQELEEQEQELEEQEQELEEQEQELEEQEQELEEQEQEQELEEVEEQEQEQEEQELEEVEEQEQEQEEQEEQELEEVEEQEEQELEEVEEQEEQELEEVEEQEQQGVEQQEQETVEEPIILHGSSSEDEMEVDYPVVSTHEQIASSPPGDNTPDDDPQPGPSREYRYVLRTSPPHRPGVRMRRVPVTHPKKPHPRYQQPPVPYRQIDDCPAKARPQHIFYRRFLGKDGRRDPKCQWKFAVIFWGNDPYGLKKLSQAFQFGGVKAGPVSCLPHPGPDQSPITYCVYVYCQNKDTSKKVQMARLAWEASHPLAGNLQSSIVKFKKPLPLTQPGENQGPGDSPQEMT

[20] = biological target: Heat shock cognate 71 kDa protein (Homo sapiens, UniProt P11142); assay: In Vitro Hsc70 Dose Response Fluorescence Polarization Assay. [Related pubchem assays: 1072 ]
[21] = biological target: T7, Small ubiquitin-related modifier 2; assay: SUMO2–SIM peptide binding inhibitors, dose response, selectivity assay for SUMO1 interaction inhibitor project, biochemical, fluorescence polarization, uHTS hits (AID 624385); assay type: functional; details: read-out: IC50_Mean

T7 sequence (P61956 whole entry): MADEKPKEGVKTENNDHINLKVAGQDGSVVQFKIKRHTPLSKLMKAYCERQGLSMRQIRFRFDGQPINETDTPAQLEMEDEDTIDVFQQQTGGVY
Sequence of Large T antigen (P03070 whole entry): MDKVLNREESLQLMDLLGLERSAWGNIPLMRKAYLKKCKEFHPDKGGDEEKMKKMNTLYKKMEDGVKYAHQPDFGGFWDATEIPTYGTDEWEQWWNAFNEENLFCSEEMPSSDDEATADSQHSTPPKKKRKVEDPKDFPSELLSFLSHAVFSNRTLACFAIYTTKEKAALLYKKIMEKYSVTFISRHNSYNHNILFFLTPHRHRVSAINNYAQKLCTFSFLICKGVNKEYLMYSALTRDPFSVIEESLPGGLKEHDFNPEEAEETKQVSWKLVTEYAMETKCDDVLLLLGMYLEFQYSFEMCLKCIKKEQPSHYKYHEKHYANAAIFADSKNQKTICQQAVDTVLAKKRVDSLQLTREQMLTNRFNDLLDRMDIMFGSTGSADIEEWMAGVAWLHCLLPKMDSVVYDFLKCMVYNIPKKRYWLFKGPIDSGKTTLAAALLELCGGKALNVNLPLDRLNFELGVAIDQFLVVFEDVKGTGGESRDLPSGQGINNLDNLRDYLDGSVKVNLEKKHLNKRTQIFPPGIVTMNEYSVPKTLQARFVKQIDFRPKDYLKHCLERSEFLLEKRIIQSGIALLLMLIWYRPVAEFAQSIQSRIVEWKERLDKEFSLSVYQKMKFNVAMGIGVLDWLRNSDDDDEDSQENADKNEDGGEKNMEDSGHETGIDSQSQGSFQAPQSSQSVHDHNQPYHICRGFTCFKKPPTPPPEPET
T5 sequence (P63165 whole entry): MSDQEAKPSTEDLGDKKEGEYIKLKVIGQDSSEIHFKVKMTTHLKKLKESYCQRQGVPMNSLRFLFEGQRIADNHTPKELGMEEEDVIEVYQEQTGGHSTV
Sequence of Mu-type opioid receptor (P35372 whole entry): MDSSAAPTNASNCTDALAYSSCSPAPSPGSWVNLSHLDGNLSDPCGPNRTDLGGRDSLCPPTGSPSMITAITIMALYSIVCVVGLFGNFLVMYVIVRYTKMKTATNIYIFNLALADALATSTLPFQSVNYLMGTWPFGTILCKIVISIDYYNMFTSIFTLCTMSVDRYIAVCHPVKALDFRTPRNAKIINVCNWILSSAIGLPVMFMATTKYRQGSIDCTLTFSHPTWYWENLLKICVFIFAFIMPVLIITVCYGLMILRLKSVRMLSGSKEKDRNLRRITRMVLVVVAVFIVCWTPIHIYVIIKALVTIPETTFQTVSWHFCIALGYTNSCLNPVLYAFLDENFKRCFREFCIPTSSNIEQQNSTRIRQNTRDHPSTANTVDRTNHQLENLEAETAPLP
Sequence of Heat shock cognate 71 kDa protein (P11142 whole entry): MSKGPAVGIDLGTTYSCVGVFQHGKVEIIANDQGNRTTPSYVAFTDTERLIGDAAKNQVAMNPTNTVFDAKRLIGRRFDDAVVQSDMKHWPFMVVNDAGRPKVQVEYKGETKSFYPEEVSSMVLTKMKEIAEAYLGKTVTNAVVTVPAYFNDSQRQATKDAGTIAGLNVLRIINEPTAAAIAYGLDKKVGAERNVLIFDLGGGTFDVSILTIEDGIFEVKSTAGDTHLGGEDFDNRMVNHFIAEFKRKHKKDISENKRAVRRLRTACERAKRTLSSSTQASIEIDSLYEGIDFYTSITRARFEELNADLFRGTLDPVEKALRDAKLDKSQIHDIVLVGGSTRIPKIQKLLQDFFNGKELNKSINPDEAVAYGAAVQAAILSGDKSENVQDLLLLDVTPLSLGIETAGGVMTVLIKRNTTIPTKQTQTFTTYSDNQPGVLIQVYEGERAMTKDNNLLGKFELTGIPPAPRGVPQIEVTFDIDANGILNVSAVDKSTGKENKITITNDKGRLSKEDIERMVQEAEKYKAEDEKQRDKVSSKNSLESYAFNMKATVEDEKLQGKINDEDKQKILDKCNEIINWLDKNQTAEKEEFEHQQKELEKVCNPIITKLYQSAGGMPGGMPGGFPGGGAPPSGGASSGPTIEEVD
Sequence of Botulinum neurotoxin type F (P30996 1-436 limits assumed): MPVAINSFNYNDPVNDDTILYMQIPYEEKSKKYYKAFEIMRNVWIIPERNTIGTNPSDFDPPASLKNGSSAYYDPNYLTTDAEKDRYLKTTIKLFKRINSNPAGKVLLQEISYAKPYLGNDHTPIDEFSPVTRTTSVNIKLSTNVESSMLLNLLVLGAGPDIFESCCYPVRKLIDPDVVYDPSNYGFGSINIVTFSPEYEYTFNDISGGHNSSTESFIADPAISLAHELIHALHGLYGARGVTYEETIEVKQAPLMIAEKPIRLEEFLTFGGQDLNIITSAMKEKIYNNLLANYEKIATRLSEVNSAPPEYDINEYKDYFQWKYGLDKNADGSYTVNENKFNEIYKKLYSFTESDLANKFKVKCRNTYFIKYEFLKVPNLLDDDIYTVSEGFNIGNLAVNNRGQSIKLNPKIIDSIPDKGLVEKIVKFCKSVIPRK
Sequence of NS3 (A3EZJ3 whole entry): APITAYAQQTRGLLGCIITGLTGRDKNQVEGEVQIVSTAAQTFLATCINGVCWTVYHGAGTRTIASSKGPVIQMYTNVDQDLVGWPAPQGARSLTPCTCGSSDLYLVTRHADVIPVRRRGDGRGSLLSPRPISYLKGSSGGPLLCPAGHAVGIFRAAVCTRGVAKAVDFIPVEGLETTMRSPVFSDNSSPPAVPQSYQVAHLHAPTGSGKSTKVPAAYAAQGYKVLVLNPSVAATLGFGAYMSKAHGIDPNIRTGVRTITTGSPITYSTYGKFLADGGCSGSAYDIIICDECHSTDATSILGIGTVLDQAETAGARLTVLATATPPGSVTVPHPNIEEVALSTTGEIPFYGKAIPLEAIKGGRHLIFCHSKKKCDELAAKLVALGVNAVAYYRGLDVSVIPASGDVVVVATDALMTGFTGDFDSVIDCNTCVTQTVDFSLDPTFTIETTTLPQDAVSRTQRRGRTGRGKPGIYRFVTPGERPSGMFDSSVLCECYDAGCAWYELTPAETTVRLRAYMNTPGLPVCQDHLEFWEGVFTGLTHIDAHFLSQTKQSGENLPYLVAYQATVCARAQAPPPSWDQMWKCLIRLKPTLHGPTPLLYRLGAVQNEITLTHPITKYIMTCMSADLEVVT
Sequence of Glyceraldehyde-3-phosphate dehydrogenase (P04406 whole entry): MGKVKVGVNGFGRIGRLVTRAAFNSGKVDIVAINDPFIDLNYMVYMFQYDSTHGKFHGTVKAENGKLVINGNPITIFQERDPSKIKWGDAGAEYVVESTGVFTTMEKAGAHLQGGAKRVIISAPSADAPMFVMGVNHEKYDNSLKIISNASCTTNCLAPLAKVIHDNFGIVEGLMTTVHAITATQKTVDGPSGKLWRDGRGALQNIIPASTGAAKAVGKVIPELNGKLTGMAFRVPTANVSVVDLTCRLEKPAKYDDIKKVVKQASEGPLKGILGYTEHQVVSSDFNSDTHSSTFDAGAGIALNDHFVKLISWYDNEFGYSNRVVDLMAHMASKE
Sequence of 5-hydroxytryptamine receptor 2A (P35363 whole entry, the tested form may be a part): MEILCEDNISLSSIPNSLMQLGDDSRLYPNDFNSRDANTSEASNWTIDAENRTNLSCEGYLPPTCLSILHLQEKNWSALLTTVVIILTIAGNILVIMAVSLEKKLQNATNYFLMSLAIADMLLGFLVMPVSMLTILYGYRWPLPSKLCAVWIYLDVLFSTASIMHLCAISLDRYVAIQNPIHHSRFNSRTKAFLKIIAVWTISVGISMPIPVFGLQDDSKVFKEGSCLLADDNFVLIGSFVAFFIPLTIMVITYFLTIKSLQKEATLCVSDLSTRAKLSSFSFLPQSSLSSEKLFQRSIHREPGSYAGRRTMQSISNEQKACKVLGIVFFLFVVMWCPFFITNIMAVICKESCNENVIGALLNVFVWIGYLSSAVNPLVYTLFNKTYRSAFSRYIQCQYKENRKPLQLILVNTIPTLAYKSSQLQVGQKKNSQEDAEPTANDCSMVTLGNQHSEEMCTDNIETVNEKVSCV
Sequence of Heat shock 70 kDa protein 1A (P0DMV8 whole entry): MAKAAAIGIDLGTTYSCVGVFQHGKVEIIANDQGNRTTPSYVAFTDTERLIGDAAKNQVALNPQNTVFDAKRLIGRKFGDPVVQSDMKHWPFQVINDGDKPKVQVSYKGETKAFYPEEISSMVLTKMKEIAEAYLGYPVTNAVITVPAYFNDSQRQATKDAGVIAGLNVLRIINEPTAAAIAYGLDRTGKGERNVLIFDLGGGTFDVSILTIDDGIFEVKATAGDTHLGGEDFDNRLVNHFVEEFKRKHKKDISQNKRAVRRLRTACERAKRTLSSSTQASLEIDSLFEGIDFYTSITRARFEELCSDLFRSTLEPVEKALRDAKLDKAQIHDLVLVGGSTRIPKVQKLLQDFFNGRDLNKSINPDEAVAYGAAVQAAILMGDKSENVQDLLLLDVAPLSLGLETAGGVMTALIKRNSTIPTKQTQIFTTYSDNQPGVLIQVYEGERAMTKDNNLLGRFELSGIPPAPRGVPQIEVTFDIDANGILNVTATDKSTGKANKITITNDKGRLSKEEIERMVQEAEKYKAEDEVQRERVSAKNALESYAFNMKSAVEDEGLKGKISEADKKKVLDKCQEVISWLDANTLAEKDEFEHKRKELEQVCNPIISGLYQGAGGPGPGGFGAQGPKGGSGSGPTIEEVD

Cc1ccc(S(=O)(=O)Nc2ccc3c(c2)CC(=O)N([C@@H](C)CO)C[C@@H](C)[C@H](CN(C)S(=O)(=O)c2ccc(Cl)cc2)O3)cc1
AC50 [1]: 17.8 µM (active)

C=CCOc1ccccc1CN1CCC(Cc2ccccc2)CC1
AC50 (Vero): 35 µM (active)

Cc1cc2ccccc2n1CCNC(=O)Cc1ccccc1
EC50 [2]: 2.9 µM (active)

C/C(=C/c1oc2ccc(O)cc2c1[N+](=O)[O-])N(C)C
IC50 [3]: 13.3 µM (active) | IC50 (Bcl-2-like protein 10): > 100 µM (inactive) | IC50 (Large T antigen): 9.41 µM (active)

Cc1ccccc1-c1ccc(/C=C2/SC(N3CCOCC3)=NC2=O)o1
EC50 [4]: 6.39 µM (active) | EC50 [5]: 26.1 µM (inconclusive) | EC50 (Mu-type opioid receptor): 92.5 µM (inactive) | EC50 [6]: 69.6 µM (active)

CCc1nc(N2CCCCC2C)c2oc3ccccc3c2n1 (centres undefined)
AC50 [7]: 36.2 µM (active) | AC50 [8]: 49.6 µM (active) | AC50 (HepG2): 14.2 µM (active) | AC50 (HeLa [9]): 11.7 µM (active)

Cc1cc(C)c2c(c1)NC(C(=O)O)C1CC=CC21 (centres undefined)
IC50 [10]: 171 µM (active) | IC50 [11]: 22.8 µM (inactive) | IC50 [12]: 46.1 µM (active) | IC50 [13]: 3.69 µM (active) | IC50 [14]: > 100 µM (not active) | IC50 [15]: 41.3 µM (active) | IC50 (NS3): 3.67 µM (active) | IC50 [16]: 91.4 µM (active) | AC50 (HeLa [17]): 264 µM (active) | IC50 [18]: > 100 µM (not active) | IC50 [19]: 4.97 µM (active) | AC50 (ORF 73): 61.2 µM (active) | IC50 [20]: > 100 µM (not active) | IC50 [21]: 13.4 µM (active) | IC50 (Large T antigen): 26.8 µM (active)
